What was measured:
[1] = target: T1, SpCas9:gRNA complex (Streptococcus pyogenes serotype M1, UniProt Q99ZW2); test: Bio-layer interferometry (BLI), compound-SpCas9 interaction; type: binding, S. pyogenes; conditions: 1 μM biotinylated compound on streptavidin sensors, SpCas9:gRNA 0.15-1 μM; read-out: dissociation constant
T1 construct: made in house; host or cells: E. coli Rosetta (DE3)
Description: Compound-SpCas9 interaction in BLI. The experiments were performed in a 96-well format with 180 μL reaction volume using […] and streptavidin sensors. 1 μM of the biotinylated compound was loaded onto the sensors for 180 s in 20 mM Tris buffer (100 mM KCl, 5 mM MgCl2, 1 mM DTT, 0.01% Tween, pH 7.4). Compound-loaded sensors were then allowed to associate with different concentrations of the SpCas9:gRNA complex (0.15-1 μM) for 300 s, followed by dissociation in reaction buffer. The reference sensor was loaded with compound and allowed to associate and dissociate in reaction buffer alone. Response curves were fitted with a 2:1 stoichiometric model and a global fit steady-state analysis was performed using manufacturer's protocol. Experiments were performed in triplicate.
Competition experiments were performed using biotin-linker fragment. In this experiment, streptavidin sensors were pre-incubated with 10 μM of biotin-linker for 10 min before dipping into a solution of either 1 μM BRD7087-biotin or reaction buffer alone. Sensors were then allowed to associate with different concentration of SpCas9:gRNA complex (0.15-1 μM) or buffer alone.

[2] = target: SpCas9 (Streptococcus pyogenes serotype M1, UniProt Q99ZW2); test: In vitro pulldown from WM793-SpCas9 cell lysate; type: binding, S. pyogenes; set-up: host or cells: U2OS.eGFP.PEST; conditions: streptavidin magnetic beads, 12 h
SpCas9, sequence (Q99ZW2 whole entry): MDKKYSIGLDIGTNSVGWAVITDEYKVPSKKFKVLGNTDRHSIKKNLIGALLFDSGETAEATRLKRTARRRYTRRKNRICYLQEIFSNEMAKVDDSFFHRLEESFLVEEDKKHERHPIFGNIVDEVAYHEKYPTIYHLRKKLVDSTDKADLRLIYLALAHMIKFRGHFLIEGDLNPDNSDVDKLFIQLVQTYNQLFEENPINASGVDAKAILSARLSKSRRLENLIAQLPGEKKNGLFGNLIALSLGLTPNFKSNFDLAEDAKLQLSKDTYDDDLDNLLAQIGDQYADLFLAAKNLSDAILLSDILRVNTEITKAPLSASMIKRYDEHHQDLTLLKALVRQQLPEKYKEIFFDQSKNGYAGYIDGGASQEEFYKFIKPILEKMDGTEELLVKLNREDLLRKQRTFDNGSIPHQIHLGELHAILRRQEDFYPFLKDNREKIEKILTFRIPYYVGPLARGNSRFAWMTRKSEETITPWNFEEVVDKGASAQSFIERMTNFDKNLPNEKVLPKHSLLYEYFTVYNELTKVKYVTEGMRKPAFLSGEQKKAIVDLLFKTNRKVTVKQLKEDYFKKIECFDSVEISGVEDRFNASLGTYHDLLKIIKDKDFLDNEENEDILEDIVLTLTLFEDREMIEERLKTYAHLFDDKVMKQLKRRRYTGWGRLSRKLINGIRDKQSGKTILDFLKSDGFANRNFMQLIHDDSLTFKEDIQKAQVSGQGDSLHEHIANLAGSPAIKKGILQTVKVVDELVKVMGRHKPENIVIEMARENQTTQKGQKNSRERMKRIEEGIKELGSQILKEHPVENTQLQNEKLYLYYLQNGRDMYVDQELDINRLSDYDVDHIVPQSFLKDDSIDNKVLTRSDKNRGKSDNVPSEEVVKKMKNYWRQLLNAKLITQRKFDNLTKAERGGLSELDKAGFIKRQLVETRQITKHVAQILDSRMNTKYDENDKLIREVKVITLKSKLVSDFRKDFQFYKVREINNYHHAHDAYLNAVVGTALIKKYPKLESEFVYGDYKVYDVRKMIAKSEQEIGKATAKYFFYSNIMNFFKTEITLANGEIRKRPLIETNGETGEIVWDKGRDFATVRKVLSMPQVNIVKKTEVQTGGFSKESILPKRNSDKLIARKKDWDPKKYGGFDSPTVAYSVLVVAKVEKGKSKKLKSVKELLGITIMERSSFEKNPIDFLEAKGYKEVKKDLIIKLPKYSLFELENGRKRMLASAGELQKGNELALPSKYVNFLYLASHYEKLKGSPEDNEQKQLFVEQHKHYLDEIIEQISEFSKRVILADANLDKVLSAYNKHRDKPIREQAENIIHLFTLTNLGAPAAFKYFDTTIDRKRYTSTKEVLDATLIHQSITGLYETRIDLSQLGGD

T1 sequence (Q99ZW2 whole entry, one chain of several): as the sequence (Q99ZW2 whole entry) above

## O=C(CCCC[C@@H]1SC[C@@H]2NC(=O)N[C@@H]21)NCCOCCOCCOCCC(=O)Nc1cccc(-c2ccc3c(c2)[C@H]2[C@H](CCN2Cc2ccncc2)[C@@H](CO)N3)c1 [BRD3539, N-(2-(2-(2-(3-((3-((3aR,4S,9bR)-4-(Hydroxymethyl)-1-(pyridin-4-ylmethyl)-2,3,3a,4,5,9b-hexahydro-1H-pyrrolo[3,2-c]quinolin-8-yl)phenyl)amino)-3-oxopropoxy)ethoxy)ethoxy)ethyl)-5-((3aS,4S,6aR)-2-oxohexahydro-1H-thieno[3,4-d]imidazol-4-yl) pentanamide]
[1]
  Kd: 700 nM

## Cc1ccc(S(=O)(=O)N2CC[C@@H]3[C@H](CNC(=O)CCOCCOCCOCCNC(=O)CCCC[C@@H]4SC[C@@H]5NC(=O)N[C@@H]54)Nc4ccc(-c5ccccc5F)cc4[C@@H]32)cc1 [biotinylated BRD0539, N-(1-((3aR,4R,9bR)-8-(2-fluorophenyl)-1-tosyl-2,3,3a,4,5,9b-hexahydro-1H-pyrrolo[3,2-c]quinolin-4-yl)-3-oxo-6,9,12-trioxa-2-azatetradecan-14-yl)-5-((3aS,4S,6aR)-2-oxohexahydro-1H-thieno[3,4-d]imidazol-4-yl) pentanamide]
[2]
  pulldown of SpCas9 from WM793-SpCas9 cell lysate: able to pulldown SpCas9

— US12391685B2, “Inhibitors of RNA-guided nuclease target binding and uses thereof” (THE BROAD INSTITUTE, INC., priority 2018, dated 2025)
